Reference: patent US20240174718A1, “RYANODINE RECEPTOR INHIBITOR COMPOUNDS AND METHODS RELATING THERETO” (Vanderbilt University, priority 2022, published 2024)

Test system: Casq2-/- mice
Assay: Catecholamine-induced arrhythmia challenge (ECG) in CPVT mice
Format: in vivo, mouse
Protocol: Triple crossover study design for in vivo arrhythmia challenge. N=22 Casq2^−/− mice were randomly assigned to vehicle (DMSO), 3 mg/kg, or 30 mg/kg ent-B1 and crossed over twice with one-week washouts between treatment. Mice underwent catecholamine-induced arrhythmia challenge with isoproterenol 15 min after intraperitoneal drug administration. […] Ectopic beats are denoted by p (PVC), c (couplet), and vt (ventricular tachycardia). Normal sinus beats are not marked. […] Individual data are shown with median and interquartile range. Bonferroni-adjusted P values by pairwise Wilcoxon matched-pairs signed rank test. *P=0.020 vs Veh; #P=0.039 vs Veh. […] Bonferroni-adjusted P values by pairwise Wilcoxon matched- pairs signed rank test. #P=0.0058 vs Vehicle.
ECG recording—Nine male and thirteen female Casq2^−/− mice 17-20 weeks old were randomly assigned to a three-by-three crossover design such that every treatment sequence was sampled. Mice were pretreated with intraperitoneal injection of vehicle (DMSO), 3 mg/kg ent-B1, or 30 mg/kg of ent-B1 fifteen minutes prior to baseline ECG recording. Mice were then injected with 3 mg/kg isoproterenol intraperitoneally. Recordings were continued for 5 minutes or for 1 minute after cessation of ventricular ectopy. A washout period of one week was used between treatments. The Vanderbilt Institutional Animal Care and Use Committee (IACUC) approved the use of mice in these studies (protocol #M1900057-01). Animals had free access to food and water.
ECG analysis—LabChart (AD Instruments, Inc) was used to analyze ECG recordings by a reviewer blinded to treatment dose. ECG records were examined to quantify premature ventricular contractions (PVCs), duration of ventricular tachycardia, heart rate, and baseline ECG parameters (PR, QRS and QT interval). Arrhythmias were scored on a five point ordinal scale based on the number of PVCs with the following criteria: 1) zero point for no PVCs; 2) one point for isolated PVCs; 3) two points for bigeminy (alternating sinus beats and PVCs); 4) three points for couplets (two consecutive PVCs); and 5) four points for three or more consecutive PVCs (ventricular tachycardia).
All tests were two-sided and a p-value cutoff of <0.05 was used to denote significance. Concentration-response curves for RyR2 single-channel, [^3H]ryanodine ligand binding and intact myocyte assays were generated using non-linear regression with the equation: Y=Bottom+(Top−Bottom)/(1+(IC50/X)^HillSlope) using least square regression, no weighting, and no constrains on the parameters. The distributions of relative RyR2 open probability at each [ent-B1] were normalized by taking the log of each sample. For the 3×3 crossover in vivo ECG study, a pre-test was conducted using a mixed model with fixed effects of sequence and period; mice were treated as random effects.
Casq2^−/− mice are a validated model for preclinical testing of antiarrhythmic drugs for CPVT. […] The same doses of ent-B1 were tested in a triple-crossover design with each mouse receiving vehicle (DMSO), 3 mg/kg, and 30 mg/kg with a one-week washout period between experiments. […] ECGs were analyzed in blinded fashion and ventricular arrhythmias quantified. […] We also scored the mice based on the ventricular arrhythmia severity, i.e., premature ventricular complexes (PVCs)<bigeminy<couplets<ventricular tachycardia. […]

Structure (SMILES): CCCCC[C@@H]1OC(=O)[C@@H](C)N(C)C(=O)[C@H](CCCCC)OC(=O)[C@@H](C)N(C)C(=O)[C@H](CCCCC)OC(=O)[C@@H](C)N(C)C1=O (single isomer, unassigned) [ent-B1]
- reduction in ventricular ectopy burden (30 mg/kg i.p., Casq2-/- mice, isoproterenol challenge): 70%
- incidence of VT (3 and 30 mg/kg i.p. vs vehicle): dose-dependent reduction
- number of total ectopic beats (3 and 30 mg/kg i.p. vs vehicle): dose-dependent reduction
- suppression of ventricular tachycardia (only at the higher dose tested, 30 mg/kg): statistically significant suppression
- arrhythmia risk scores (ordinal scale 0-4, vs vehicle): lower
